Measured values published in patent US20040167097A1, “EPO D + 5-FU/gemcitabine” (priority 2002, published 2004).
Read-outs that look alike come from different tables or passages of the source.

Columns and labels:
[1] = comparison value for paclitaxel; cited from earlier work
thymidine phosphorylase = assay: Production of thymidine phosphorylase in tumor cells; assay type: cell-based; conditions: some tumor cells; preliminary experiments
Method: The data from each of the combination analyses was analyzed using [sequence] software (Biosoft, Cambridge, UK), which determined a combination index (“CI”) value for each combination in each of the three cell lines examined.

[2] = Pharmacokinetics after infusion; assay type: in vivo
Text: In general, the pharmacokinetics are favorable. […] This is somewhat higher on average than the values for paclitaxel which are 140±70 l.

[3] = system: paclitaxel-sensitive and paclitaxel-resistant cell lines and xenographs; conditions: cited from earlier work
tumor = conditions: mice; Chou, et al. 2001; cited from earlier work

CC(=O)O[C@H]1C(=O)[C@@]2(C)[C@H]([C@H](OC(=O)c3ccccc3)[C@]3(O)C[C@H](OC(=O)[C@H](O)[C@@H](NC(=O)c4ccccc4)c4ccccc4)C(C)=C1C3(C)C)[C@]1(OC(C)=O)CO[C@@H]1C[C@@H]2O [paclitaxel]
volume of distribution (Vz) [1]: 140 ± 70 L

C/C1=C/C[C@@H](/C(C)=C/c2csc(C)n2)OC(=O)C[C@H](O)C(C)(C)C(=O)[C@H](C)[C@@H](O)[C@@H](C)CCC1 [epothilone D, 12,13-deoxyepothilone B]
production of thymidine phosphorylase (thymidine phosphorylase): upregulate | dependence of AUC on dosage ([2]; from 9 to 150 mg/m^2): linear | dose dependence of pharmacokinetics ([2]; in vivo): not dose-dependent | pharmacokinetic parameters, second infusion as compared to first infusion ([2]; in vivo): do not change | half-life, mean value ([2]; infusion): 9.6 ± 2.2 h | volume of distribution (Vz) ([2]; infusion): 172 ± 74 L | antitumor efficacy [3]: has antitumor efficacy | antitumor effects (tumor): dramatic antitumor effects
